Here are results for 24 molecules from patent publication US20250304574A1, “3,4,6,7-TETRAHYDRO-2,7-NAPHTHYRIDINE-2(1H)-CARBOXAMIDE DERIVATIVES AS GPR65 INHIBITORS FOR THE TREATMENT OF CANCER AND AUTOIMMUNE DISEASES” (Pathios Therapeutics Limited, priority 2022, published 2025).

This assay has as its target human recombinant GPR65 (Homo sapiens, UniProt Q8IYL9). The assay is described as follows: Human GPR65 cAMP HTRF antagonist assay. The format is cell-based. As to conditions: 1321N1 cells stably expressing human recombinant GPR65, assay pH 7.2, read-out: hGPR65 IC50. As for the experimental part: Human GPR65 Cyclic Adenosine Monophosphate (cAMP) Homogeneous Time Resolved Fluorescence (HTRF) Antagonist Assay Procedure
IC50 data was obtained by the following procedure:
1321N1 human astrocytoma cells stably expressing human recombinant GPR65 (1321N1-hrGPR65 cells, EuroscreenFast) were cultured according to the vendor's instructions.
Compounds were tested for their ability to antagonise GPR65, through measuring the concentration of cytoplasmic cAMP following treatment of the cells at a pH of 7.2 to activate GPR65 signalling and addition of the compound to be tested. The extent to which the expected rise in cAMP concentration upon GPR65 activation was suppressed by the added compound is indicative of its potency. The assay was carried out according to EuroscreenFast assay Methodology as follows.
On the day of the assay, test compounds were added to 384-well, low volume, white microtiter plates by acoustic dispensing. KRH buffer (5 mM KCl, 1.25 mM MgSO4, 124 mM NaCl, 25 mM HEPES, 13.3 mM Glucose, 1.25 mM KH2PO4 and 1.45 mM CaCl2) was adjusted to pH 6.5, pH 7.6 and pH 8.4 by adding NaOH. 1321N1-hGPR65 cells were rapidly thawed and diluted in KRH, pH 7.6 prior to centrifugation at 300×g for 5 min and resuspension in assay buffer (KRH, pH 7.6, supplemented with 1 mM 3-isobutyl-1-methylxanthine (IBMX) and 200 μM ethylenediaminetetraacetic acid (EDTA)). Cells were added to assay plates at a density of 2,000 cells per well in a volume of 5 μl. Assay plates were briefly centrifuged at 100×g and then incubated at room temperature for 30 min. Cells were stimulated by the addition of 5 μL KRH, pH 6.5, to achieve an assay pH of 7.2, while control wells received 5 μl KRH, pH 8.4 to achieve an assay pH of 7.9. Assay plates were briefly centrifuged at 100×g and then incubated at room temperature for 30 min.
Accumulation of cAMP was detected by cAMP HTRF kit (Cisbio). d2-labeled cAMP and cryptate-labeled anti-cAMP antibody in Lysis and Detection Buffer (Cisbio) were added to assay plates, and the plates were incubated at room temperature for 1 h. HTRF measurements were performed using a Pherastar FSX instrument. Acceptor and donor emission signals were measured at 665 nm and 620 nm, respectively, and HTRF ratios were calculated as signal665 nm/signal620nm×10^4. Data were normalised to high and low control values and fitted with 4-parameter logistic regression to determine hGPR65 IC50 values for the test compounds, which are shown in Table 1.
(In general: TR-FRET usually uses a lanthanide donor and a delayed reading to cut background.)

Sequence of human recombinant GPR65 (Q8IYL9 whole entry): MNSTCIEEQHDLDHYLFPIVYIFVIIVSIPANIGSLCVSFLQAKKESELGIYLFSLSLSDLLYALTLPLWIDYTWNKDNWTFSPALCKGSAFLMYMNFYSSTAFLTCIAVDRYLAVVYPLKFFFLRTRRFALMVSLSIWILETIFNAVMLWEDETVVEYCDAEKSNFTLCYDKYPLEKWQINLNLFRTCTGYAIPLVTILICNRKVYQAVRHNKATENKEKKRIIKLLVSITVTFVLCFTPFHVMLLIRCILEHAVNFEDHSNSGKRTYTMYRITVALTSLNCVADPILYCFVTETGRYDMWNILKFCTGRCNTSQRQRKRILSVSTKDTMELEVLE

What is called IC50 is the concentration that gives 50% inhibition. On to `O=C(Nc1cc(Cl)c(C(F)(F)F)cn1)N1CCc2cc(=O)[nH]cc2C1` [Compound 5, N-(4-chloro-5-(trifluoromethyl)pyridin-2-yl)-6-oxo-3,4,6,7-tetrahydro-2,7-naphthyridine-2(1H)-carboxamide], for which the IC50 lay in the range of 500 to 5000 nM.
With `O=C(Nc1cc(Cl)c(C(F)(F)F)cn1)N1CCc2cc(F)ncc2C1` [Compound 13, N-(4-Chloro-5-(trifluoromethyl)pyridin-2-yl)-6-fluoro-3,4-dihydro-2,7-naphthyridine-2(1H)-carboxamide] the figure was 500 to 5000 nM.
With `O=C(Nc1cc(Cl)c(C(F)(F)F)cc1F)N1CCc2cc(F)ccc2C1` [Compound 11, N-(5-Chloro-2-fluoro-4-(trifluoromethyl)phenyl)-6-fluoro-3,4-dihydroisoquinoline-2(1H)-carboxamide] the figure was less than 500 nM.
With `O=C(Nc1cc(Br)c(C(F)(F)F)cc1F)N1CCc2cc(=O)[nH]cc2C1` [Compound 1, N-(5-bromo-2-fluoro-4-(trifluoromethyl)phenyl)-6-oxo-3,4,6,7-tetrahydro-2,7-naphthyridine-2(1H)-carboxamide] the figure was less than 500 nM; with `O=C(Nc1nnc(C(F)(F)F)s1)N1CCc2cc(=O)[nH]cc2C1` [Compound 7, 6-Oxo-N-(5-(trifluoromethyl)-1,3,4-thiadiazol-2-yl)-3,4,6,7-tetrahydro-2,7-naphthyridine-2(1H)-carboxamide], 500 to 5000 nM; with `C[C@@H]1CN(C(=O)Nc2cc(Cl)c(C(F)(F)F)cc2F)Cc2c[nH]c(=O)cc21` (single isomer, unassigned; isomer 1) [Compound 25, N-(5-chloro-2-fluoro-4-(trifluoromethyl)phenyl)-4-methyl-6-oxo-3,4,6,7-tetrahydro-2,7-naphthyridine-2(1H)-carboxamide isomer 1], less than 500 nM.
Take `CC1CN(C(=O)Nc2cc(Cl)c(C(F)(F)F)cc2F)Cc2ccnc(F)c21` (stereo not drawn) [Compound 23, N-(5-Chloro-2-fluoro-4-(trifluoromethyl)phenyl)-5-fluoro-4-methyl-3,4-dihydro-2,6-naphthyridine-2(1H)-carboxamide]: the concentration for half-maximal inhibition (IC50) is less than 500 nM.
As for `C[C@H]1CN(C(=O)Nc2cc(Cl)c(C(F)(F)F)cc2F)Cc2ccnc(F)c21` (single isomer, unassigned; isomer 2) [Compound 29, N-(5-chloro-2-fluoro-4-(trifluoromethyl)phenyl)-5-fluoro-4-methyl-3,4-dihydro-2,6-naphthyridine-2(1H)-carboxamide isomer 2], the figure is less than 500 nM; as for `O=C(Nc1cc(Cl)c(C(F)(F)F)cn1)N1CCc2c(ccnc2F)C1` [Compound 16, N-(4-chloro-5-(trifluoromethyl)pyridin-2-yl)-5-fluoro-3,4-dihydro-2,6-naphthyridine-2(1H)-carboxamide], less than 500 nM.
Turning to `O=C(Nc1cc(Cl)c(C(F)(F)F)cc1F)N1CCc2c(ccnc2F)C1` [Compound 17, N-(5-Chloro-2-fluoro-4-(trifluoromethyl)phenyl)-5-fluoro-3,4-dihydro-2,6-naphthyridine-2(1H)-carboxamide], the 50% inhibitory concentration (IC50) was less than 500 nM.
With `O=C(Nc1cc(Cl)c(C(F)(F)F)cc1F)N1CCc2cc(=O)[nH]nc2C1` [Compound 15, N-(5-Chloro-2-fluoro-4-(trifluoromethyl)phenyl)-3-oxo-2,5,6,8-tetrahydropyrido[3,4-c]pyridazine-7(3H)-carboxamide] the figure was less than 500 nM.
With `O=C1NN=C2CN(C(=O)Nc3cc(Cl)c(C(F)(F)F)cc3F)CC=C2N1` [Compound 14, N-(5-Chloro-2-fluoro-4-(trifluoromethyl)phenyl)-3-oxo-2,4,6,8-tetrahydropyrido[4,3-e][1,2,4]triazine-7(3H)-carboxamide] the figure was 500 to 5000 nM; with `O=C(Nc1nnc(C(F)(F)F)s1)N1CCc2cc(F)ccc2C1` [Compound 9, 6-Fluoro-N-(5-(trifluoromethyl)-1,3,4-thiadiazol-2-yl)-3,4-dihydroisoquinoline-2(1H)-carboxamide], less than 500 nM; with `CC1CN(C(=O)Nc2cc(Cl)c(C(F)(F)F)cc2F)Cc2c[nH]c(=O)cc21` (racemic) [Compound 21, (±)-N-(5-chloro-2-fluoro-4-(trifluoromethyl)phenyl)-4-methyl-6-oxo-3,4,6,7-tetrahydro-2,7-naphthyridine-2(1H)-carboxamide], less than 500 nM.
With `O=C(Nc1cc(Cl)c(C(F)(F)F)cc1F)N1Cc2ccnc(F)c2C(F)C1` (stereo not drawn) [Compound 27, N-(5-chloro-2-fluoro-4-(trifluoromethyl)phenyl)-4,5-difluoro-3,4-dihydro-2,6-naphthyridine-2(1H)-carboxamide], the 50% inhibitory concentration (IC50) was less than 500 nM.
As for `C=C1CN(C(=O)Nc2cc(Cl)c(C(F)(F)F)cc2F)Cc2cnc(F)cc21` [Compound 22, N-(5-Chloro-2-fluoro-4-(trifluoromethyl)phenyl)-6-fluoro-4-methylene-3,4-dihydro-2,7-naphthyridine-2(1H)-carboxamide], the figure is 500 to 5000 nM; as for `O=C(Nc1cc(Cl)c(Br)cc1F)N1CCc2cc(=O)[nH]cc2C1` [Compound 3, N-(4-Bromo-5-chloro-2-fluorophenyl)-6-oxo-3,4,6,7-tetrahydro-2,7-naphthyridine-2(1H)-carboxamide], less than 500 nM; as for `N#Cc1ccc2c(c1)CCN(C(=O)Nc1cc(C(F)(F)F)on1)C2` [Compound 6, 6-Cyano-N-(5-(trifluoromethyl)isoxazol-3-yl)-3,4-dihydroisoquinoline-2(1H)-carboxamide], 500 to 5000 nM.
Turning to `C[C@@H]1CN(C(=O)Nc2cc(Cl)c(C(F)(F)F)cc2F)Cc2ccnc(F)c21` (single isomer, unassigned; isomer 1) [Compound 28, N-(5-chloro-2-fluoro-4-(trifluoromethyl)phenyl)-5-fluoro-4-methyl-3,4-dihydro-2,6-naphthyridine-2(1H)-carboxamide isomer 1], the IC50 is less than 500 nM.
With `O=C(Nc1cc(Cl)c(Cl)cn1)N1CCc2cc(=O)[nH]cc2C1` [Compound 8, N-(4,5-Dichloropyridin-2-yl)-6-oxo-3,4,6,7-tetrahydro-2,7-naphthyridine-2(1H)-carboxamide], the IC50 is 500 to 5000 nM.
As for `O=C(Nc1cc(Cl)c(C(F)(F)F)cc1F)N1CCc2cc(=O)[nH]cc2C1` [Compound 2, N-(5-Chloro-2-fluoro-4-(trifluoromethyl)phenyl)-6-oxo-3,4,6,7-tetrahydro-2,7-naphthyridine-2(1H)-carboxamide], the figure is less than 500 nM; as for `O=C(Nc1nnc(C(F)(F)F)s1)N1CCc2cc(Cl)ccc2C1` [Compound 10, 6-Chloro-N-(5-(trifluoromethyl)-1,3,4-thiadiazol-2-yl)-3,4-dihydroisoquinoline-2(1H)-carboxamide], less than 500 nM.
As for `CS(=O)(=O)c1nnc2c(n1)CCN(C(=O)Nc1cc(Cl)c(C(F)(F)F)cc1F)C2` [Compound 18, N-(5-chloro-2-fluoro-4-(trifluoromethyl)phenyl)-3-(methylsulfonyl)-5,8-dihydropyrido[4,3-e][1,2,4]triazine-7(6H)-carboxamide], the figure is 500 to 5000 nM.
As for `CC1CN(C(=O)Nc2cc(Cl)c(C(F)(F)F)cc2F)Cc2cnc(F)cc21` (stereo not drawn) [Compound 20, N-(5-Chloro-2-fluoro-4-(trifluoromethyl)phenyl)-6-fluoro-4-methyl-3,4-dihydro-2,7-naphthyridine-2(1H)-carboxamide], the figure is 500 to 5000 nM.
